# From US20250235543A1, “MODIFIED PROTEINS AND PROTEIN DEGRADERS” (Cullgen (Shanghai), Inc., priority 2021, published 2025)
# What was measured:
# [1] = test system: Calu-1, NCI-H522, BT-549, Hs578T, MIA PaCa-2 or other cells; test: Inhibition of cancer cell growth, 9-point serial dilution in 96-well plates; type: cell-based; conditions: 3 d treatment
# DDB1 = target: T1, DDB1 (Homo sapiens, UniProt Q16531, D705G/DEL396-460/DEL463-701/I704S/T703N); test: SPR binding assay to immobilized DDB1ΔBPB; conditions: binding affinities to DDB1
# T1 construct: His6 (N, cleaved yes); TEV protease cleavage site (N, cleaved yes); made in house; host or cells: SF9 insect cells, Bac-to-Bac baculovirus, pFastBacHTB vector
# Outline: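 Untagged Sf9-expressed DDB1ΔBPB (BPB domain aa 396-705 replaced by GNGNSG linker) amine-coupled to CM5 chip at 10,000-12,000 RU; 25° C, HBS-EP pH 7.4 with 5% DMSO. Compounds injected multi-cycle at 100 μM-3.125 μM (6-point two-fold); double-referenced, solvent-corrected data fit to steady-state model for Kd.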
# cyclin D1 = test: Cyclin D1 percentage degradation in Calu-1 cells (immunoblotting); type: cell-based; conditions: 200 nM, 16 hours
# Outline: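 Cyclin D1 degradation was assessed by western blot. Clarified lysates, obtained by RIPA lysis with inhibitors and centrifugation at 13,000 rpm, were normalized by BCA protein assay and separated by SDS-PAGE. Bands were detected with Western ECL Substrate on a Bio-Rad ChemiDoc MP Imaging system and quantified in Image Lab software to derive percentage degradation.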
# Calu-1 = test: Cell viability assay, Calu-1; type: cell-based; conditions: Homo sapiens, 72 h; Calu-1, NSCLC, 3 days; read-out: Cellular Anti-proliferation activity (IC50)
# Outline: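 Cells were exposed to a serial dilution of test compound for 3-6 days, or 3 days with a 9-point series for CDK4/6 inhibitors and heterobifunctional compounds. Viability was read by luminescence (CellTiter-Lumi). IC50 came from nonlinear least-squares regression of dose-response curves, reported as mean±SD.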
# MDA-MB-453 = test: Cell viability assay, MDA-MB-453; type: cell-based; conditions: Homo sapiens, 72 h; MDA-MB-453, TNBC, 3 days; read-out: Cellular Anti-proliferation activity (IC50)
# Experimental: (§1) Cells were treated with CDK4/6 inhibitors palbociclib, ribociclib, or abemaciclib, or heterobifunctional compounds CPD-002 or CPD-031 following a 9-point serial dilution for 3 days.
# (§2) Cells were seeded at a density of 2,000-5,000 cells per well in 96-well assay plates and treated with test compounds following a 10-point serial dilution for 3-6 days. Cell viability was determined using the CellTiter-Lumi assay kit according to the manufacturer's instructions. The dose-response curves were determined and IC50 values were calculated using the GraphPad Prism software following a nonlinear regression (least squares fit) method. Data presented was mean±standard deviation (SD) unless otherwise indicated.
# Hs578T = test: Cell viability assay, Hs578T; type: cell-based; conditions: Homo sapiens, Hs-578T, 72 h, TNBC, 3 days, read-out: Cellular Anti-proliferation activity (IC50)
# Experimental: as §1, §2
# MIA PaCa-2 = test: Cell viability assay, MIA PaCa-2; type: cell-based; conditions: Homo sapiens, 72 h; MIA PaCa-2, PC, 3 days; read-out: Cellular Anti-proliferation activity (IC50)
# Experimental: as §1, §2
# Cal-62 = test: Cell viability assay, Cal-62; type: cell-based; conditions: Homo sapiens, 72 h; Cal-62, TC, 3 days; read-out: Cellular Anti-proliferation activity (IC50)
# Experimental: as §1, §2
# [2] = test system: cyclin D1, cyclin D2, cyclin D3, CDK4 and CDK6; test: Immunoblotting of cyclin D and CDK4/6 protein levels in Calu-1 cells; type: cell-based; conditions: for cyclin D degradation after pretreatment with MG-132, MLN4924 or TAK-243: 2 hours pre-treatment, then 500 nM CPD-002, 500 nM CPD-004 or 100 nM CPD-031 for 4 h or 2 h; for time course of cyclin D1, cyclin D2 and cyclin D3 protein level reduction: CPD-002 at 500 nM, CPD-031 at 100 nM; for cyclin D1, cyclin D2, cyclin D3, CDK4 and CDK6 protein levels: indicated concentrations, 16 hours
# Experimental: Calu-1 (FIG. 2A) or BT-549 (FIG. 2B) cells were treated with CPD-002, CPD-004, or palbociclib at indicated concentrations for 16 hours.
# Calu-1 cells were treated with CPD-031 at indicated concentrations for 16 hours.
# Calu-1 cells were treated with CPD-002 or CPD-031 at 500 nM or 100 nM, respectively for indicated period of time.
# Calu-1 cells were pre-treated with DMSO, 20 μM MG-132 (MG), 5 μM MLN4924 (MLN) or 1 μM TAK-243 (TAK) for 2 hours, and subsequently incubated with 500 nM CPD-002, 500 nM CPD-004, or 100 nM CPD-031 for another 4 h or 2 h prior to immunoblotting (FIG. 5A-5B).
# Calu-1 cells were treated with a dose range of negative control compounds CPD-042 or CPD-049 for 16 hours (FIG. 6A-6B).
# Calu-1 cells were treated with reference compounds CP-10 or BSJ-03-123 at indicated concentrations for 8 hours.
# Cultured cells were washed with cold PBS once and lysed in cold RIPA buffer supplemented with protease inhibitors and phosphatase inhibitors (Beyotime Biotechnology). The solutions were then incubated at 4° C. for 30 min with gentle agitation to fully lysed cells. Cell lysates were centrifuged at 13,000 rpm for 10 min at 4° C. and pellets were discarded. Total protein concentrations in the lysates were determined following BCA assays (Beyotime Biotechnology). Cell lysates were mixed with Laemmli loading buffer and heated at 99° C. for 5 min. Proteins were resolved on SDS-PAGE and visualized using Western ECL Substrate kits on a ChemiDoc MP Imaging system (Bio-Rad). Protein bands were quantitated using the Image Lab software provided by Bio-Rad.
# T1 sequence (Q16531 other isoform, or with tags, fused parts or gaps DEL396-460/DEL463-701/T703N/I704S/D705G): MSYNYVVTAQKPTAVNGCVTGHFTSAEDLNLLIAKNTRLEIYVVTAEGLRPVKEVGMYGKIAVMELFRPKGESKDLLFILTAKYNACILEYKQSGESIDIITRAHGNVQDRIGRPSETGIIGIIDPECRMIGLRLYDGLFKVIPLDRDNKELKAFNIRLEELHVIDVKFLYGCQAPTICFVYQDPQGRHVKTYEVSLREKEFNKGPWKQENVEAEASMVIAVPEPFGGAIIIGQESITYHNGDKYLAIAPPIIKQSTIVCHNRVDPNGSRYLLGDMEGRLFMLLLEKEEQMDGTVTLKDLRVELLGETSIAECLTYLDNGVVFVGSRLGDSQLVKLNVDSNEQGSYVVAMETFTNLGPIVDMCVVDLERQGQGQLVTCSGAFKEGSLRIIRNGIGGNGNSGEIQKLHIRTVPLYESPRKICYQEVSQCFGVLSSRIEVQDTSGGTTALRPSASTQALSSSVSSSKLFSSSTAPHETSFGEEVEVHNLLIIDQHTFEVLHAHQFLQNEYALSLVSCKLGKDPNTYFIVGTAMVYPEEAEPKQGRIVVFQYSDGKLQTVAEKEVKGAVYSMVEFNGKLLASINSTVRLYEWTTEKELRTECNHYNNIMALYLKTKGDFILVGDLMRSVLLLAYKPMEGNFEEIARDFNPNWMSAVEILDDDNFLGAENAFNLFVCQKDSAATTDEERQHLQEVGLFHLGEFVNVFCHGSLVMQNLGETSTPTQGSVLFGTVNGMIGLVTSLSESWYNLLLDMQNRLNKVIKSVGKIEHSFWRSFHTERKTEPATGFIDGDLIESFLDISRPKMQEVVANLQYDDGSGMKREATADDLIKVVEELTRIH
Kd (DDB1),IC50 (Calu-1),IC50 (MDA-MB-453),IC50 (MIA PaCa-2),Structure (SMILES),potency at inhibition of multiple cancer cell lines versus CDK4/6 inhibitors [1],CyclinD1 Degradation (200 nM) (cyclin D1),IC50 (Hs578T),IC50 (Cal-62),"cyclin D degradation after pretreatment with MG-132, MLN4924 or TAK-243 [2]","time course of cyclin D1, cyclin D2 and cyclin D3 protein level reduction [2]","cyclin D1, cyclin D2, cyclin D3, CDK4 and CDK6 protein levels [2]"
20000 to 50000 nM,68 nM,741 nM,175 nM,"CC(=O)c1c(C)c2cnc(Nc3ccc(N4CCN(CC(=O)NCCOCCOCCOCCOCCOCCNc5ccc(C(=O)Nc6ncc(C)s6)c(C)c5)CC4)cn3)nc2n(C2CCCC2)c1=O [CPD-002, 4-((1-(4-(6-((6-Acetyl-8-cyclopentyl-5-methyl-7-oxo-7,8-dihydropyrido[2,3-d]pyrimidin-2-yl)amino)pyridin-3-yl)piperazin-1-yl)-2-oxo-6,9,12,15,18-pentaoxa-3-azaicosan-20-yl)amino)-2-methyl-N-(5-methylthiazol-2-yl)benzamide]","significantly more potent than palbociclib, ribociclib, and abemaciclib",A (protein percentage degradation >=80%),215 nM,50 nM,diminished the cyclin D degradation effect,significantly reduced as early as one hour following treatment,"reduced cyclin D1, cyclin D2, cyclin D3, CDK4 and CDK6 protein levels in a concentration-dependent manner"
< 20000 nM,9 nM,300 nM,57 nM,"CC(=O)c1c(C)c2cnc(Nc3ccc(N4CCN(CC(=O)NCCOCCOCCOCCOCCOCCNc5ccc(C(=O)Nc6nc(C)c(C)s6)c(C)c5)CC4)cn3)nc2n(C2CCCC2)c1=O [CPD-031, 4-((1-(4-(6-((6-Acetyl-8-cyclopentyl-5-methyl-7-oxo-7,8-dihydropyrido[2,3-d]pyrimidin-2-yl)amino)pyridin-3-yl)piperazin-1-yl)-2-oxo-6,9,12,15,18-pentaoxa-3-azaicosan-20-yl)amino)-N-(4,5-dimethylthiazol-2-yl)-2-methylbenzamide]","significantly more potent than palbociclib, ribociclib, and abemaciclib",A (protein percentage degradation >=80%),38 nM,5 nM,diminished the cyclin D degradation effect,significantly reduced as early as one hour following treatment,"downregulated the protein levels of cyclin D1, cyclin D2, cyclin D3, CDK4, CDK6, and downstream phosphorylated Rb in a concentration-dependent manner"
